Measured values: patent publication US11648239B2, “Azophenols as ERG oncogene inhibitors” (The Henry M. Jackson Foundation for the Advancement of …, priority 2015, dated 2023)
Values belong to the compound of their own block, whether it stands above or below them.

Legend:
VCaP cells = assay: VCaP cell growth inhibition; assay type: cell-based; conditions: for IC50: metastatic prostate cancer, TMPRSS2-ERG fusion, N/D = assay performed, inhibition not detected at the tested levels
Method: (§1) Approximately 48 hours following plating of cells, the appropriate test compound is added to each well of the tissue culture dish at a predetermined concentration. The medium was replenished every 24 hours with fresh growth medium containing the same concentration of the same test compound for indicated period of the cell growth inhibition assay. Percent cell growth inhibition was calculated using a hemocytometer for estimating cell density in each of the test wells of the tissue culture dish and trypan blue dye exclusion microscopy and photography to estimate the fraction of viable cells in each test well.
To investigate whether the azophenol compounds selectively arrested the growth of ERG positive cancer cells (VCaP), VCaP cells were cultured to achieve cells in logarithmic growth and these cells were then plated in 6 well tissue culture dishes in duplicates at a cell density of 0.2×10^6 cells per well. The plated cells were exposed to 0, 0.2, 0.4, 0.6, 0.8 and 1 μM concentrations of each compound for a period of 8 days. At the end of time period, cells were recovered from the test plate, washed, trypsinized and the cell density of viable cells were determined with trypan blue dye staining method and automated cell counter Bio-Rad TC10. The IC50 of cell growth inhibition of each compound was determined by trypsinizing the cells at the end of the experiment and counting the cells by using the automated cell counter (Bio-Rad TC10 automated cell counter). The average cell numbers of each concentration were used to calculate the IC50 of each compound with the GraphPad Prism 6 software.

ERG protein [1] = biological target: T1, ERG protein (Homo sapiens, UniProt P11308); assay: Inhibition of ERG protein in VCaP cells (Western blot); assay type: cell-based; conditions: for IC50: metastatic prostate cancer, TMPRSS2-ERG fusion, N/D = assay performed, inhibition not detected at the tested levels
T1 construct: host or cells: VCaP
T1 sequence (P11308 33-479 limits assumed): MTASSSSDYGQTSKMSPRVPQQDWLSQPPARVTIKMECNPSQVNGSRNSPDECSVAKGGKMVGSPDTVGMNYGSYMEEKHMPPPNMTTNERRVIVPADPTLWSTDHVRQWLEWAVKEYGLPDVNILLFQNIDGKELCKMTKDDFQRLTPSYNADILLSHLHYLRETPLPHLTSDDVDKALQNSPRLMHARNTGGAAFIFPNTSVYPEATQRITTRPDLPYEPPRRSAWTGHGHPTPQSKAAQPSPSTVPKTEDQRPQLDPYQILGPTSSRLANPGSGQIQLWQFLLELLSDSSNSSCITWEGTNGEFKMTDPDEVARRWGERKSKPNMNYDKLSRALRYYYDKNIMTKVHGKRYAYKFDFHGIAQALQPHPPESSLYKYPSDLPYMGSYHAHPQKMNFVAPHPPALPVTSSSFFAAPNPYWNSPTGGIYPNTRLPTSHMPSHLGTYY
Method: The TMPRSS2-ERG fusion positive prostate cancer cell line, VCaP (ATCC), was used to identify the test compound inhibitors of ERG expression. Cells were grown in medium using conditions prescribed by the vendor. VCaP cells in logarithmic growth were seeded in a tissue culture dish at a cell density of 2×10^6 cells per plate. Following 48 hours incubation at 37° C., cells were exposed for a period of 48 hours with 0, 0.05, 0.25 and 0.5 μM concentrations of each test azophenol compound. The inhibition of ERG expression was evaluated by an In-cell Western blot assay (LI-COR Biosciences, Lincoln, Nebr.) using the ERG specific CPDR ERG-MAb as further described below.
(§2) Inhibition of ERG protein expression by the test compounds were determined by Western blot analysis. The ERG specific monoclonal antibody CPDR ERG-MAb was used as the primary antibody. In brief, Western blot was performed by running a fixed amount of total protein extracted from cell lysates of the treated cells using (4-12% Bis-Tris) gel by electrophoresis, followed by transfer to membrane and incubation with primary antibody and continued with HRP-conjugated secondary antibody. Cultured cells were treated at specific dosages with each of the tested ERG inhibitors. Following incubation of the treated cells for an indicated time period, cells were lysed using Mammalian Protein Extraction Reagent (M-PER; Pierce, Rockford, Ill.) containing a protease inhibitor cocktail and phosphatase inhibitor cocktails I & III (Sigma, St Louis, Mo.). Cell lysates containing 50 μg of total protein were electrophoresed through 4-12% Bis-Tris Gel (Invitrogen, Carlsbad, Calif.) and the cellular proteins were transferred to PVDF membrane (Invitrogen, Carlsbad, Calif.). Membranes were incubated at 4° C. for 12 hours with primary antibodies for AR, PSA, GAPDH, α-Tubulin, apoptosis markers and cell cycle regulators. Following exposure to primary antibodies, the membranes were washed with buffer (3×, 5 minutes each at room temperature) followed by incubation with relevant secondary antibodies for 1 hour at 24° C. Finally, the membranes were washed with buffer and developed using the ECL Western blot detection reagent (GE Health Care, Buckinghamshire, UK). The ERG protein expression of the test azophenol compounds were normalized with GAPDH.
In brief, ERG positive VCaP cells in loganthmic growth phase were plated in 10 cm tissue culture dish at a cell density of 2×10^6 cells per dish. The plated cells were treated with 0, 0.2, 0.4, 0.6, 0.8 and 1 μM concentrations of each azophenol compound for a period of 48 hours. Cells from each dish were then processed for Western blot analysis and alterations in the expression of ERG protein were monitored. Both ERG and GAPDH protein band were quantified from each concentration using Image J (NIH) and ERG band density was normalized with corresponding GAPDH protein control. Relative density of ERG in each concentration was calculated and with Graphpad Prism 6 software, the IC50 of each compound was calculated.

AR [2] = assay: Inhibition of endogenous AR protein in LNCaP cells (Western blot); assay type: cell-based; conditions: ERG negative LNCaP; 0.25 μM and 1 μM; FIG. 4
Method: (§3) To investigate whether the azophenol compounds of the invention are selective inhibitors of ERG protein expression, representative azophenol compounds were further tested for its ability to inhibit AR and PSA activity in the following AR positive/ERG negative prostate cancer cell lines: LNCaP (mutant AR positive and ERG negative), as well as in LAPC4 cells that are AR (wild type) positive and ERG negative.
(§4) Inhibition of ERG protein expression by the test compounds were determined by Western blot analysis. The ERG specific monoclonal antibody CPDR ERG-MAb was used as the primary antibody. In brief, Western blot was performed by running a fixed amount of total protein extracted from cell lysates of the treated cells using (4-12% Bis-Tris) gel by electrophoresis, followed by transfer to membrane and incubation with primary antibody and continued with HRP-conjugated secondary antibody. Cultured cells were treated at specific dosages with each of the tested ERG inhibitors. Following incubation of the treated cells for an indicated time period, cells were lysed using Mammalian Protein Extraction Reagent (M-PER; Pierce, Rockford, Ill.) containing a protease inhibitor cocktail and phosphatase inhibitor cocktails I & III (Sigma, St Louis, Mo.). […]

RIOK2 protein [3] = biological target: T2, RIOK2 protein (Homo sapiens, UniProt Q9BVS4); assay: Inhibition of RIOK2 protein in VCaP cells (Western blot); assay type: cell-based; set-up: host or cells: VCaP; conditions: 0.1, 0.2, 0.4, 0.6, 0.8 and 1 μM; FIG. 14, 17
T2 sequence (Q9BVS4 whole entry): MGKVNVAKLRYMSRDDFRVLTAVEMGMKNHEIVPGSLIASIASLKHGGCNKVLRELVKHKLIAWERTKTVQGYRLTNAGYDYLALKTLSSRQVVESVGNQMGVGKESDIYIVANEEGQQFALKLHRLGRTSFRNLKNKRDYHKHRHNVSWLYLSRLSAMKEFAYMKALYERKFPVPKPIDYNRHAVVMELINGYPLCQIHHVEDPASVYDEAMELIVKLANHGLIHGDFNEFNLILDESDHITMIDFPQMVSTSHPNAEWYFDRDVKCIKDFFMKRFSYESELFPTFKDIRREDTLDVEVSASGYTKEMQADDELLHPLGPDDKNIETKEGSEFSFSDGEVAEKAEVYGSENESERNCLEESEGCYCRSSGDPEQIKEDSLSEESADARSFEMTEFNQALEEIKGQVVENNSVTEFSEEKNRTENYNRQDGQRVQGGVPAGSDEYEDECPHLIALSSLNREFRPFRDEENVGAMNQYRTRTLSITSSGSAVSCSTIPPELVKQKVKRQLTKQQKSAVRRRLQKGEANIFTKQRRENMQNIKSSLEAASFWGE

RIOK2 protein [4] = biological target: T2, RIOK2 protein; assay: Inhibition of RIOK2 protein in HUVEC normal endothelial cells (Western blot); assay type: cell-based; set-up: ERG and RIOK2 proteins in endogenous ERG expressing normal endothelial cells (HUVEC); host or cells: HUVEC; conditions: 0.25 μM and 1 μM, FIG. 10
COLO320 cells = assay: COLO320 cell growth; assay type: cell-based; conditions: 0.25 μM and 1 μM, FIG. 9
Method: as §1

HUVEC = HUVEC cell growth; assay type: cell-based, human; conditions: 0.25 μM and 1 μM, FIG. 11
Method: as §1

LAPC-4 cells = assay: LAPC-4 cell growth; assay type: cell-based; conditions: 0.25 μM and 1 μM, FIG. 7
Method: as §1

LNCaP cells = assay: LNCaP cell growth; assay type: cell-based; conditions: 0.25 μM and 1 μM, FIG. 5
Method: as §1

PSA [5] = assay: Inhibition of endogenous PSA protein in VCaP cells (Western blot); assay type: cell-based; conditions: 0.25 μM and 1 μM, FIG. 2
Method: as §2, with “Following exposure to primary antibodies, the membranes were washed with buffer (3×, 5 minutes each at room temperature) followed by incubation with relevant secondary antibodies for 1 hour at 24° C. Finally, the membranes were washed with buffer and developed using the ECL Western blot detection reagent (GE Health Care, Buckinghamshire, UK). The ERG protein expression of the test azophenol compounds were normalized with GAPDH.” left out

ERG protein [6] = biological target: T3, ERG protein (Homo sapiens, UniProt P11308); assay: Inhibition of endogenous ERG protein in COLO320 cells (Western blot); assay type: cell-based; set-up: host or cells: COLO320; conditions: 0.25 μM and 1 μM, FIG. 8
T3 sequence (P11308 1-479): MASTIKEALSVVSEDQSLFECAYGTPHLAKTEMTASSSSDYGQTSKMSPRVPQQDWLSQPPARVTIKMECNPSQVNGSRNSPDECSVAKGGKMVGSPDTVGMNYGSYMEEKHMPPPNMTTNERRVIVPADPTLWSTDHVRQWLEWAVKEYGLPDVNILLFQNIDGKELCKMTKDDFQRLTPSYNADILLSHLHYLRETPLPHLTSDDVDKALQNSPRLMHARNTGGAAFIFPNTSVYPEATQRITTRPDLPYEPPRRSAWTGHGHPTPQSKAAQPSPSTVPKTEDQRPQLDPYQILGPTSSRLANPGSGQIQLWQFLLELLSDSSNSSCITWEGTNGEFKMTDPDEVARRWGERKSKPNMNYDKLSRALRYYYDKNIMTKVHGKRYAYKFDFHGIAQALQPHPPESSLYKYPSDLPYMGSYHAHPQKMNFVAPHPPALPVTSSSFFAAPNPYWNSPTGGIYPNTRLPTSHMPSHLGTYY
Method: as §2, with “Following exposure to primary antibodies, the membranes were washed with buffer (3×, 5 minutes each at room temperature) followed by incubation with relevant secondary antibodies for 1 hour at 24° C. Finally, the membranes were washed with buffer and developed using the ECL Western blot detection reagent (GE Health Care, Buckinghamshire, UK). The ERG protein expression of the test azophenol compounds were normalized with GAPDH.” left out

ERG protein [7] = biological target: T3, ERG protein; assay: Inhibition of ERG protein in HUVEC normal endothelial cells (Western blot); assay type: cell-based; conditions: 0.25 μM and 1 μM, FIG. 10
Method: as §2, with “Following exposure to primary antibodies, the membranes were washed with buffer (3×, 5 minutes each at room temperature) followed by incubation with relevant secondary antibodies for 1 hour at 24° C. Finally, the membranes were washed with buffer and developed using the ECL Western blot detection reagent (GE Health Care, Buckinghamshire, UK). The ERG protein expression of the test azophenol compounds were normalized with GAPDH.” left out

RWPE-1 cells = assay: RWPE-1 cell growth; assay type: cell-based; conditions: 0.25 μM and 1 μM, FIG. 12
Method: as §1

RIOK2 protein [8] = biological target: T2, RIOK2 protein; assay: Inhibition of endogenous RIOK2 protein in COLO320 cells (Western blot); assay type: cell-based; conditions: 0.25 μM and 1 μM, FIG. 8
BPH-1 cells = assay: BPH-1 cell growth; assay type: cell-based; conditions: 0.25 μM and 1 μM, FIG. 12
Method: as §1

PSA [9] = assay: Inhibition of endogenous PSA protein in LNCaP cells (Western blot); assay type: cell-based; conditions: ERG negative LNCaP; 0.25 μM and 1 μM; FIG. 4
Method: as §3, §4

AR [10] = assay: Inhibition of endogenous AR protein in LAPC-4 cells (Western blot); assay type: cell-based; conditions: ERG negative LAPC-4; 0.25 μM and 1 μM; FIG. 6
Method: as §3, §4

AR [11] = assay: Inhibition of endogenous AR protein in VCaP cells (Western blot); assay type: cell-based; conditions: 0.25 μM and 1 μM, FIG. 2
Method: as §2, with “Following exposure to primary antibodies, the membranes were washed with buffer (3×, 5 minutes each at room temperature) followed by incubation with relevant secondary antibodies for 1 hour at 24° C. Finally, the membranes were washed with buffer and developed using the ECL Western blot detection reagent (GE Health Care, Buckinghamshire, UK). The ERG protein expression of the test azophenol compounds were normalized with GAPDH.” left out

ERG protein [12] = biological target: T3, ERG protein; conditions: PCT US2015/020172; cited from earlier work
[13] = system: normal primary endothelial cells; conditions: PCT US2015/020172; cited from earlier work

SMILES: Cc1cc(N=Nc2nccs2)c(O)cc1O [Compound 3]
- inhibition of VCaP cell growth (VCaP cells; 0.3, 0.6, 1.0, 3.0 and 10.0 μM, FIG. 25-30): inhibition
- IC50 (VCaP cells; VCaP): 4070 nM
- IC50 (ERG protein [1]; VCaP): 1350 nM

SMILES: CC(C)c1ccc(O)c(N=Nc2nccs2)c1 [Compound 1]
- inhibition of endogenous AR protein (AR [2]): lack of inhibition
- inhibition of RIOK2 protein in VCaP cells (RIOK2 protein [3]): inhibition
- inhibition of RIOK2 protein (RIOK2 protein [4]): lack of inhibition
- inhibition of growth of ERG harboring colon cancer cells (COLO320 cells): inhibition
- growth of ERG harboring normal endothelial cells (HUVEC): do not affect the growth
- inhibition of VCaP cell growth (VCaP cells; 0.1, 0.2, 0.4, 0.6, 0.8 and 1 μM, FIG. 15, 18): inhibition
- inhibition of the growth of ERG harboring prostate cancer cells (VCaP cells; VCaP, 0.25 μM and 1 μM, FIG. 3): inhibition
- growth of ERG negative prostate cancer cells (LAPC-4 cells): do not affect the growth
- growth of ERG negative prostate cancer cells (LNCaP cells): do not affect the growth
- inhibition of endogenous PSA protein (PSA [5]): inhibition
- inhibition of endogenous ERG protein (ERG protein [6]): inhibition
- inhibition of ERG protein (ERG protein [7]): lack of inhibition
- inhibition of ERG protein in VCaP cells (ERG protein [1]; 0.1, 0.2, 0.4, 0.6, 0.8 and 1 μM, FIG. 13, 16): inhibition
- inhibition of endogenous ERG protein (ERG protein [1]; VCaP, 0.25 μM and 1 μM, FIG. 2): inhibition
- growth of ERG negative prostate-derived immortalized cells (RWPE-1 cells): do not affect the growth
- inhibition of endogenous RIOK2 protein (RIOK2 protein [8]): inhibition
- growth of ERG negative prostate-derived immortalized cells (BPH-1 cells): do not affect the growth
- inhibition of endogenous PSA protein (PSA [9]): lack of inhibition
- inhibition of endogenous AR protein (AR [10]): do not inhibit
- inhibition of endogenous AR protein (AR [11]): inhibition

- IC50 (VCaP cells; VCaP): 626 nM
- IC50 (ERG protein [1]; VCaP): 559 nM
SMILES: CN(C)c1ccc(N=Nc2ccc(Br)cn2)c(O)c1 [Compound 7]
- inhibition of VCaP cell growth (VCaP cells; 0.2, 0.4, 0.6, 0.8 and 1 μM, FIG. 19-22, 24): inhibition

SMILES: Oc1ccc2ccccc2c1N=Nc1nccs1 [ERGi-USU]
- inhibition of ERG protein in ERG positive cancer cell lines (ERG protein [12]): inhibit the ERG protein
- effect on normal primary endothelial cells that endogenously express ERG [13]: minimal effect
